From patent EP1267826B1, “PHARMACEUTICAL COMPOSITION FOR TREATMENT OF MUCOSAL EPITHELIAL ULCERATION AND/OR EROSION” (LIF-HLAUP EHF. BIO-GELS PHARMACEUTICALS INC., priority 1999, dated 2001)
Where “and” joins values, the source holds several entries; their conditions need not be identical. Equal values may be shown once.

Legend:
MMP's = settings: literature (Burns et al. 1989; Gabler et al. 1991); cited from earlier work
MMP-9 = molecular target: T1, MMP-9 (Homo sapiens, UniProt P14780); experiment: Zymography, inhibition of gelatinolytic activity; assay type: biochemical; settings: MMP-9 acquired from HT-1080; result determined visually; read-out: concentration at which complete inhibition was achieved
T1 construct: known to secrete a large amount of several matrix-degrading enzymes, among which are MMP-2 and MMP-9; endogenous in cells; host or cells: HT-1080 human fibrosarcoma cells (secreted enzyme)
Text: (§1) In checking the inhibition of the doxycycline on MMP's a Zymography method was used (Mackay et al., Cancer Res., 50(18), 5997-6001, 1990).
(§2) Cell culture: HT-1080 is human fibrosarcoma cell line which is known to secrete a large amount of several matrix-degrading enzymes, among which are MMP-2 and MMP-9 (Kawamata et al., International Journal of Oncology, 13, 699-704, 1998).

MMP-2 = molecular target: T2, MMP-2 (Homo sapiens, UniProt P08253); experiment: Zymography, inhibition of gelatinolytic activity; assay type: biochemical; settings: MMP-2 acquired from HT-1080; result determined visually; read-out: concentration at which complete inhibition was achieved
T2 construct: known to secrete a large amount of several matrix-degrading enzymes, among which are MMP-2 and MMP-9; endogenous in cells; host or cells: HT-1080 human fibrosarcoma cells (secreted enzyme)
T2 sequence (P08253 110-660): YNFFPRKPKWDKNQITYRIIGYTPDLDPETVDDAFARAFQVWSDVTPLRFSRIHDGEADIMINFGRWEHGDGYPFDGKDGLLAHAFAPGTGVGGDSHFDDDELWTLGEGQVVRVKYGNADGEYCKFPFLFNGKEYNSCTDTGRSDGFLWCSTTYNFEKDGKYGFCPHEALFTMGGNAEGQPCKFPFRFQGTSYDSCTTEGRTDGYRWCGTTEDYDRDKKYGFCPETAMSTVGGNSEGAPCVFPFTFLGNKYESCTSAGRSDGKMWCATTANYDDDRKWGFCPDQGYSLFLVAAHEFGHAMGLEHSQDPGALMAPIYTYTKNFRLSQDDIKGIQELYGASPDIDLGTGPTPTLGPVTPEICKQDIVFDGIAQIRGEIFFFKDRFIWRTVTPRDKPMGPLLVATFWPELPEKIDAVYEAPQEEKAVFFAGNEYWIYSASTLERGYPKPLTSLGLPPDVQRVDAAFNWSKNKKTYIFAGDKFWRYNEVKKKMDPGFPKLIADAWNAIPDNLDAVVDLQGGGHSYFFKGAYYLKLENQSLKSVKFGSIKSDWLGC
Text: as §1, §2

T1 sequence (P14780 94-707): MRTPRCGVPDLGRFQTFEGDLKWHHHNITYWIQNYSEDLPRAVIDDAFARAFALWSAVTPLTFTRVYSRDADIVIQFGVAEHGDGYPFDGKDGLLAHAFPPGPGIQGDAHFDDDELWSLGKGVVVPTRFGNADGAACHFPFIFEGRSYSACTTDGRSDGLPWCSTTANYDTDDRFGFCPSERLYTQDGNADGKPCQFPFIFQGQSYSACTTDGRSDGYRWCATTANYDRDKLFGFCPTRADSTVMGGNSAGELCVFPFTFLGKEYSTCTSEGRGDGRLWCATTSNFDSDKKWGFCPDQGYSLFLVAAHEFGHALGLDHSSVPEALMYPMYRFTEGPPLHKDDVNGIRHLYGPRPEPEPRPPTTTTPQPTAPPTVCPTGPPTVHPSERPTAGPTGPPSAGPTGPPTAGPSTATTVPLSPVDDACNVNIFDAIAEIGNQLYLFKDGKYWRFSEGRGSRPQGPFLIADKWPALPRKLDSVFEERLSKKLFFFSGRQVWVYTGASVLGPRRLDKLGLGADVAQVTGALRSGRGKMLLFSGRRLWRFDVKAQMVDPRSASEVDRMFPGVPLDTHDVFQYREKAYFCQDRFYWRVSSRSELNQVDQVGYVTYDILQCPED

IC100 (MMP-9)	IC100 (MMP-2)	SMILES	inhibition of the MMP's (in words) (MMP's)
–	–	CCN(CC)CCCCCCCCOC(=O)c1cc(OC)c(OC)c(OC)c1 [TMB-8]	have shown inhibition of MMP's
50 µM and 24 µg/mL	100 µM and 48 µg/mL	C[C@H]1c2cccc(O)c2C(=O)C2=C(O)[C@]3(O)C(=O)C(C(N)=O)=C(O)[C@@H](N(C)C)[C@@H]3[C@@H](O)[C@@H]21 [doxycycline]	–
–	–	O=C(O)CN(CCN(CC(=O)O)CC(=O)O)CC(=O)O [EDTA]	have shown inhibition of MMP's
